Assay in all cases: NCI anticancer screen, dose series, 48 h
In assay [1] the test system is HCC-2998 colon.
The subject of assay [2] is HCT-116 colon.
The test system of assay [3] is NCI-H226 lung.
In assay [4] the test system is OVCAR-3 ovarian.
The subject of assay [5] is OVCAR-5 ovarian.
Assay [6] relates to SF-295 CNS.
Assay [7] deals with SK-MEL-28 melanoma.
Assay [8] deals with SNB-19 CNS.
For assay [9], the system named is SNB-75 CNS.
The subject of assay [10] is UACC-62 melanoma.
The subject of assay [11] is HOP-92 NSCLC.

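Compound exposure: 48 hours, 5 concentrations, 96-well plates. TGI marks complete inhibition of growth.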

In the case of `O=C(O)c1ccc(S(=O)(=O)c2ccccc2[N+](=O)[O-])cc1`, the TGI in assay [1], in assay [2], in assay [3], in assay [4], in assay [5] and in [6] was more than 10 µM each time. For the same molecule, the TGI in assay [7], in assay [8], in [9] and in assay [10] was more than 10 µM each time.

Consider `CCn1nc2c3c(ncn3C(C)(C)O2)c1=O`, for which the TGI in assay [1], in assay [2], in assay [11], in assay [3], in assay [5] and in assay [6] was more than 100 µM each time. Moreover, the TGI in assay [7], in assay [8] and in [10] was more than 100 µM throughout.

With `c1cc2nnnn2nc1N1CCCC1`, the TGI in assay [1], in [2], in [11], in assay [3], in assay [5] and in [6] was more than 100 µM each time. The TGI in assay [7], in [8] and in assay [10] was more than 100 µM in each case.

On to `Cc1cc(C2(O)C=C(C(C)(C)C)C(=O)C(C(C)(C)C)=C2)c(C)cc1C1(O)C=C(C(C)(C)C)C(=O)C(C(C)(C)C)=C1`, for which the TGI in [2], in [3], in assay [5], in assay [6], in assay [7] and in [8] was more than 100 µM throughout. Further, the TGI in assay [9] and in assay [10] was more than 100 µM throughout.

In the case of `C1CCC2C(C1)CCCC2NC1=NCCO1` (stereo not drawn), the TGI in assay [1], in assay [2], in [3], in assay [4], in [5] and in assay [6] was more than 100 µM in each case. Moreover, the TGI in assay [7], in assay [8], in [9] and in [10] was more than 100 µM throughout.

For the molecule `NCCN=C(Nc1ccccc1)Nc1ccccc1`, the TGI in assay [1], in assay [2], in [3], in [4], in [6] and in [7] was more than 100 µM in each case. The TGI in assay [8], in [9] and in assay [10] was more than 100 µM each time.

On to `NC(=O)NNC(=O)c1nc[nH]c1[N+](=O)[O-]`, for which the TGI in assay [1], in assay [2], in assay [3], in [4], in assay [5] and in assay [7] was more than 100 µM throughout. The TGI in [9] and in [10] was more than 100 µM throughout.

In the case of `C/C=C/C(O)P1(=O)N(Cc2ccccc2)[C@@H]2CCCC[C@H]2N1Cc1ccccc1` (stereo partly drawn), the TGI in [1], in assay [2], in [3], in assay [4], in [5] and in assay [6] was more than 25 µM in each case. In addition, the TGI in [7], in assay [8], in assay [9] and in assay [10] was more than 25 µM each time.

For the molecule `C1CNCCNCCN1`, the TGI in assay [1], in assay [2], in [11], in assay [3], in [4] and in [5] was more than 100 µM in each case. The TGI in assay [6], in assay [7], in assay [8] and in assay [10] was more than 100 µM each time.

Take `O=C1Nc2c(ccc(Cl)c2I)C1=O`: the TGI in [1] worked out at 34.4 µM; in assay [2], 33.4 µM; in assay [3] it was 46.4 µM; in [4], 55.7 µM; in assay [5], 34.3 µM; in assay [6] it was 36.5 µM. The TGI is 32.7 µM in [7], more than 100 µM in assay [8] and 33.8 µM in assay [10].

Turning to `CCCCCCCCCCCCCCCCCC(=O)O[C@H](COC(=O)CCCCCCCCCCC)COC(=O)CCCCCCCCCCCCCCC`, the TGI in assay [1], in [2], in assay [11], in assay [3], in [4] and in [5] was more than 100 µM throughout. Besides, the TGI in assay [6], in [7], in [8] and in assay [10] was more than 100 µM throughout.

For `COC(=O)C1=C2SCc3cccc(c3)CSC3=C(C(=O)OC)SC(=C(S2)S1)S3`, the TGI in [1], in [2], in assay [3], in assay [4], in [6] and in [7] was more than 100 µM throughout. For the same molecule, the TGI in [8], in assay [9] and in [10] was more than 100 µM each time.

Take `O=C(CSc1nnc(Cc2ccccc2)o1)Nc1ccc([N+](=O)[O-])cc1`: the TGI in [1], in assay [2], in assay [3], in assay [4], in assay [5] and in [6] was more than 100 µM each time. Further, the TGI in assay [7], in assay [9] and in assay [10] was more than 100 µM each time.

Regarding `O=C(Cc1ccccc1)NN1C(=O)C(Cl)C1c1ccc(O)cc1` (stereo not drawn), the TGI in assay [1], in assay [2], in assay [3], in [4], in [5] and in assay [6] was more than 100 µM throughout. Moreover, the TGI in [7], in [8], in assay [9] and in assay [10] was more than 100 µM throughout.

On to `CCN1C(=O)C(=C/C=C/c2ccc([N+](=O)[O-])cc2)C(=O)N(CC)C1=S`, for which the TGI in [1] is more than 100 µM; in [2], 31.9 µM; in assay [11], 34.2 µM; in assay [3] it was more than 100 µM; in [4], 32.9 µM; in [5] it was more than 100 µM. The TGI in assay [6] was more than 100 µM; in assay [7], 31.9 µM; in assay [8] it was more than 100 µM; in [10], 34.7 µM.

As for `CC(=O)Nc1cc2c(s1)CCC1CC(=O)NN=C21` (stereo not drawn), the TGI in assay [2], in assay [3], in assay [4], in [5], in assay [6] and in [7] was more than 100 µM throughout. Besides, the TGI in [8], in assay [9] and in assay [10] was more than 100 µM throughout.

As to `O=C(Cc1ccccc1)NN1C(=O)/C(=C\c2cccc(O)c2)SC1=Nc1ccccc1`, the TGI in assay [1], in assay [2], in assay [3], in assay [4], in assay [5] and in assay [6] was more than 100 µM in each case. For the same molecule, the TGI in assay [7], in [8], in [9] and in [10] was more than 100 µM in each case.

For `COC(=O)N/N=C(\C)C(CN1CCCCC1)C(C1=C(O)c2ccccc2OC1)c1ccccc1` (stereo not drawn), the TGI in assay [2], in [3], in assay [4], in [5], in [6] and in assay [7] was more than 100 µM in each case. The TGI in assay [8], in [9] and in assay [10] was more than 100 µM in each case.

Turning to `Cc1ccc(-c2cc(N)n(-c3nc4c(c(=O)n(C)c(=O)n4C)n3C)n2)cc1`, the TGI in assay [1], in assay [2], in assay [11], in assay [3], in [4] and in assay [5] was more than 100 µM in each case. Further, the TGI in assay [6], in [7], in [8] and in assay [10] was more than 100 µM each time.

With `COC(=O)[C@@H]1CCCN1CCN1CCC[C@H]1C(=O)OC`, the TGI in assay [2], in assay [11], in assay [4], in [5], in [6] and in assay [7] was more than 100 µM each time. The TGI in assay [8] and in assay [10] was more than 100 µM throughout.

As for `CCC(C#N)NC(=O)NC(C#N)CC` (stereo not drawn), the TGI in [1], in [2], in assay [11], in [3], in assay [4] and in assay [5] was more than 100 µM in each case. For the same molecule, the TGI in assay [6], in assay [8] and in assay [10] was more than 100 µM each time.

In the case of `Cc1ccc(S(=O)(=O)OCC(=O)O)cc1`, the TGI in assay [2], in assay [11], in assay [4], in assay [5], in assay [6] and in assay [7] was more than 100 µM each time. Moreover, the TGI in [8] and in assay [10] was more than 100 µM throughout.

The record behind these values is PubChem BioAssay (NCI).
